Calls of active or inactive are those of the source. No cut-off for these calls is given here.
Assays:
BaF3 = experiment: Antiproliferative activity against mouse BaF3 transfected with FGFR4 assessed as inhibition of cell growth incubated for 72 hrs by CCK-8 assay; type: toxicity, cell-based; settings: BaF3, 72 h
HCT-116 [1] = experiment: Induction of cell cycle arrest in human HCT-116 cells assessed as accumulation of cells at G2/M phase incubated for 48 hrs by propidium iodide staining based flow cytometry; type: functional
SW480 [2] = experiment: Induction of cell cycle arrest in human SW480 cells assessed as accumulation of cells at G2/M phase incubated for 48 hrs by propidium iodide staining based flow cytometry; type: functional
RKO [3] = experiment: Induction of cell cycle arrest in human RKO cells assessed as accumulation of cells at G2/M phase incubated for 48 hrs by propidium iodide staining based flow cytometry; type: functional
SW480 [4] = experiment: Induction of cell cycle arrest in human SW480 cells assessed as downregulation of cyclin B1 expression at 1.5 to 6 uM by immunoblotting analysis; type: functional, cell-based; settings: dose 1.5-6 µM
RKO [5] = experiment: Induction of cell cycle arrest in human RKO cells assessed as downregulation of cyclin B1 expression at 1.5 to 6 uM by immunoblotting analysis; type: functional, cell-based; settings: dose 1.5-6 µM
RKO [6] = experiment: Induction of cell cycle arrest in human RKO cells assessed as downregulation of CDC2 expression at 1.5 to 6 uM by immunoblotting analysis; type: functional, cell-based; settings: dose 1.5-6 µM
HCT-116 [7] = experiment: Induction of apoptosis in human HCT-116 cells assessed as downregulation of ratio of Bcl-2/Bax expression at 3 to 12 uM incubated for 48 hrs by Western blotting analysis; type: functional, cell-based; settings: dose 3-12 µM
SW480 [8] = experiment: Induction of apoptosis in human SW480 cells assessed as downregulation of ratio of Bcl-2/Bax expression at 3 to 12 uM incubated for 48 hrs by Western blotting analysis; type: functional, cell-based; settings: dose 3-12 µM
HCT-116 [9] = experiment: Anti-migration activity in human HCT-116 cells assessed as loss of actin cytoskeletal fibers at 3 to 12 uM by immunofluorescence assay; type: functional, cell-based; settings: dose 3-12 µM
SW480 [10] = experiment: Anti-migration activity in human SW480 cells assessed as change in FAK distribution at 3 to 12 uM by immunofluorescence assay; type: functional, cell-based; settings: dose 3-12 µM
RKO [11] = experiment: Anti-migration activity in human RKO cells assessed as change in FAK distribution at 3 to 12 uM by immunofluorescence assay; type: functional, cell-based; settings: dose 3-12 µM
[12] = Toxicity in ICR mouse assessed as change in body weight at 20 mg/kg,po administrated for 1 week; type: organism-based; settings: in vivo, 168 h, time 1 weeks
[13] = Toxicity in ICR mouse assessed as change in body weight at 60 mg/kg,po administrated for 1 week; type: organism-based; settings: in vivo, 168 h, time 1 weeks
[14] = Toxicity in ICR mouse assessed as change in heart weight at 20 mg/kg,po administrated for 1 week; type: organism-based; settings: in vivo, 168 h, time 1 weeks
[15] = Toxicity in ICR mouse assessed as change in spleen weight at 60 mg/kg,po administrated for 1 week; type: organism-based; settings: in vivo, 168 h, time 1 weeks
[16] = Toxicity in ICR mouse assessed as change in lung weight at 60 mg/kg,po administrated for 1 week; type: organism-based; settings: in vivo, 168 h, time 1 weeks
[17] = Hepatotoxicity in ICR mouse assessed as change in serum creatinine level at 20 mg/kg,po administrated for 1 week; type: toxicity, organism-based; settings: in vivo, 168 h, time 1 weeks
[18] = Hepatotoxicity in ICR mouse assessed as change in serum AST level at 20 mg/kg,po administrated for 1 week; type: toxicity, organism-based; settings: in vivo, 168 h, time 1 weeks
[19] = Toxicity in ICR mouse assessed as histopathological change in kidney at 60 mg/kg,po administrated for 1 week by hematoxylin and eosin staining analysis; type: organism-based; settings: in vivo, 168 h, time 1 weeks
[20] = Toxicity in BALB/c mouse xenografted with human HCT-116 cells assessed as change in body weight at 10 mg/kg,ip administrated for 2 weeks; type: organism-based; settings: in vivo, 336 h
[21] = Toxicity in BALB/c mouse xenografted with human HCT-116 cells assessed as change in body weight at 20 mg/kg,ip administrated for 2 weeks; type: organism-based; settings: in vivo, 336 h
[22] = Toxicity in BALB/c mouse xenografted with human HCT-116 cells assessed as change in lung weight at 20 mg/kg,ip administrated for 2 weeks; type: organism-based; settings: in vivo, 336 h
[23] = Toxicity in BALB/c mouse xenografted with human HCT-116 cells assessed as change in spleen weight at 10 mg/kg,ip administrated for 2 weeks; type: organism-based; settings: in vivo, 336 h
[24] = Toxicity in BALB/c mouse xenografted with human HCT-116 cells assessed as change in serum ALT level at 20 mg/kg,ip administrated for 2 weeks; type: organism-based; settings: in vivo, 336 h
HCT-116 [25] = experiment: Antitumor activity against human HCT-116 cells xenografted in BALB/c mouse assessed as upregulation of E-cad expression in tumor at 10 mg/kg,ip administrated for 2 weeks by Western blotting analysis; type: functional, organism-based
HCT-116 [26] = experiment: Antitumor activity against human HCT-116 cells xenografted in BALB/c mouse assessed as downregulation of FAK expression in tumor at 10 mg/kg,ip administrated for 2 weeks by Western blotting analysis; type: functional, organism-based
HCT-116 [27] = experiment: Antitumor activity against human HCT-116 cells xenografted in BALB/c mouse assessed as decrease in CD68 expression in tumor tissue at ip administrated for 2 weeks by immunohistochemical analysis; type: functional, organism-based

C=CC(=O)NCCCn1c(=O)c(-c2c(Cl)c(OC)cc(OC)c2Cl)cc2cnc(Nc3c(C)cccc3NC(=O)C=C)cc21
IC50 (BaF3): 9.48 nM | Activity (HCT-116 [1]): Dose-Dependent Effect | Activity (SW480 [2]): Dose-Dependent Effect | Activity (RKO [3]): Dose-Dependent Effect | Activity (SW480 [4]): Active | Activity (RKO [5]): Active | Activity (RKO [6]): Active | Activity (HCT-116 [7]): Active | Activity (SW480 [8]): Active | Activity (HCT-116 [9]): Active | Activity (SW480 [10]): Active | Activity (RKO [11]): Active | Activity [12]: Non-Toxic | Activity [13]: Non-Toxic | Activity [14]: Non-Toxic | Activity [15]: Non-Toxic | Activity [16]: Non-Toxic | Activity [17]: Non-Toxic | Activity [18]: Non-Toxic | Activity [19]: Non-Toxic | Activity [20]: Non-Toxic | Activity [21]: Non-Toxic | Activity [22]: Non-Toxic | Activity [23]: Non-Toxic | Activity [24]: Non-Toxic | Activity (HCT-116 [25]): Active | Activity (HCT-116 [26]): Active | Activity (HCT-116 [27]): Dose-Dependent Effect
